The values below come from patent US20150283269A1, “RECONSTITUTED HUMAN IMMUNE SYSTEM IN A PATIENT DERIVED XENOGRAFT MOUSE MODEL” (Crown Bioscience Inc., priority 2014, published 2015).

Structures are written as SMILES.

The assay concerns GA 0055 tumor. As to the kind of experiment: Anti-tumor activity against GA 0055 gastric tumor PDX in HuMice and NOD/SCID mice. The class given is in vivo, mouse. The text has this:
In yet another example of the utility of the HuPrime™ 3.0 mouse model (PDX human immunocompetent NOD/SCID mouse with CD34^+ hSC+PDX gastric tumor), patient cells derived from a human patient diagnosed with over-expressing gastric cancer, GA 0055, were engrafted into HuPrime™ 3.0 mice.
The HuPrime™ 3.0 mice engrafted with GA 0055 were divided into six groups, four mice each. Three groups were engrafted with UCB human stem cells and three groups were not.
Patient tumor fragments of NSCLC or gastric tumor tissue derived from diseased seed mice were engrafted 2.5 weeks after the CD34+ cell inoculation in order to create patient derived xenograft (PDX) models. Solid tumor sample fragments from seed mice inoculated with selected primary human lung or gastric cancer tissues were harvested and used for inoculation into mice. Each mouse was inoculated subcutaneously at the right flank with one tumor fragment (2-3 mm in diameter) for tumor development. The treatments were started when mean tumor size reached approximately 100-150 mm^3 The transplanted animals were monitored by weekly bleed and FACS analysis for hCD45^+ cells in peripheral blood.

For `N.N.[Cl][Pt][Cl]` [Cisplatin], the “treatment response, stained GA 0055 tumor cross-sections” value (5 mg/kg Cisplatin, H&E stained cross-section (40x10), FIG. 6A) is “effective”. Moreover, the tumor growth result (HuMice mice (reconstituted human immunocompetent) engrafted with GA 0055, with vs without treatment, FIG. 7A, 7C) is recorded as “slowed tumor growth”.
